In ChEMBL document CHEMBL4334438, “Discovery of novel glycogen synthase kinase-3α inhibitors: Structure-based virtual screening, preliminary SAR and biological evaluation for treatment of acute myeloid leukemia” (Eur J Med Chem, 2019):

Legend:
[1] = test system: Glycogen synthase kinase-3 alpha (Homo sapiens), P49840 [UNDEFINED MUTATION]; test: Inhibition of human GSK-3alpha S449A mutant (2 to end residues) at 10 uM using phospho GS2 peptide as substrate after 40 mins in presence of [gamma-33ATP] by scintillation counting method relative to control
Chain of Glycogen synthase kinase-3 alpha (Homo sapiens), P49840 [UNDEFINED MUTATION] (P49840 whole entry, looked up, stated change not applied): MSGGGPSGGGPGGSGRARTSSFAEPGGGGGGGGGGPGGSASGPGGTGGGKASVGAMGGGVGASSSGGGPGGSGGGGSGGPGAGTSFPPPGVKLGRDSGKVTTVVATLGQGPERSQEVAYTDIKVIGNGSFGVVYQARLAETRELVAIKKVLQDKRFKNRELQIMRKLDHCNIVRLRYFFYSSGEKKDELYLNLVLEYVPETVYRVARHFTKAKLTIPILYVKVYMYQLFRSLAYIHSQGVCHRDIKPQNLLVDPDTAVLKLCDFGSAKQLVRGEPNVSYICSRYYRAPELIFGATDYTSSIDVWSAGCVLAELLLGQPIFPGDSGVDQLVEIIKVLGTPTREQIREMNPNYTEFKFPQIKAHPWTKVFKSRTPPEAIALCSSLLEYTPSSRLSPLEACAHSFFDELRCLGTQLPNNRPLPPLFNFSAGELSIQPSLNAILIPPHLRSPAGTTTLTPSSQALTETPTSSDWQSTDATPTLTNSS

[2] = test system: Tyrosine-protein kinase ABL1 (Homo sapiens), P00519 [T315I]; test: Inhibition of human ABL1 T315I mutant (27 to end residues) assessed as residual activity at 1 uM using EAIYAAPFAKKK as substrate incubated for 40 mins in presence of [gamma-33ATP] by scintillation counting based radiometry assay relative to control
[3] = target: Mitogen-activated protein kinase kinase kinase 5 (Homo sapiens) (UniProt Q99683); test: Inhibition of recombinant human ASK1 (649 to 946 residues) assessed as residual activity at 1 uM using myelin basic protein as substrate incubated for 40 mins in presence of [gamma-33ATP] by scintillation counting based radiometry assay relative to control
[4] = target: Calcium/calmodulin-dependent protein kinase type 1 (Homo sapiens) (UniProt Q14012); test: Inhibition of recombinant human CaMKIalpha (2 to end residues) assessed as residual activity at 1 uM […] incubated for 40 mins in presence of [gamma-33ATP] by scintillation counting based radiometry assay relative to control
Chain of Calcium/calmodulin-dependent protein kinase type 1 (Homo sapiens) (Q14012 whole entry, looked up): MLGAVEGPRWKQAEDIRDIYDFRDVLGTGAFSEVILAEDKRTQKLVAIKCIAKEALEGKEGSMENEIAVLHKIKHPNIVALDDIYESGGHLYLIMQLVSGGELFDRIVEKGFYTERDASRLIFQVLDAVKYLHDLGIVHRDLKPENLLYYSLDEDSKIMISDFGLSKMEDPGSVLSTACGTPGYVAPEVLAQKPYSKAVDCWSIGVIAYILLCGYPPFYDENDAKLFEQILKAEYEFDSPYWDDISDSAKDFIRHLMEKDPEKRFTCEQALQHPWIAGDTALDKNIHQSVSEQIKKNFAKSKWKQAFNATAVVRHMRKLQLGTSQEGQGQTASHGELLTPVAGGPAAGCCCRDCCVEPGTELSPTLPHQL

[5] = target: Calcium/calmodulin-dependent protein kinase type II subunit delta (Homo sapiens) (UniProt Q13557); test: Inhibition of recombinant full length human CaMK2delta assessed as residual activity at 1 uM […] incubated for 40 mins in presence of [gamma-33ATP] by scintillation counting based radiometry assay relative to control
Chain of Calcium/calmodulin-dependent protein kinase type II subunit delta (Homo sapiens) (Q13557 whole entry): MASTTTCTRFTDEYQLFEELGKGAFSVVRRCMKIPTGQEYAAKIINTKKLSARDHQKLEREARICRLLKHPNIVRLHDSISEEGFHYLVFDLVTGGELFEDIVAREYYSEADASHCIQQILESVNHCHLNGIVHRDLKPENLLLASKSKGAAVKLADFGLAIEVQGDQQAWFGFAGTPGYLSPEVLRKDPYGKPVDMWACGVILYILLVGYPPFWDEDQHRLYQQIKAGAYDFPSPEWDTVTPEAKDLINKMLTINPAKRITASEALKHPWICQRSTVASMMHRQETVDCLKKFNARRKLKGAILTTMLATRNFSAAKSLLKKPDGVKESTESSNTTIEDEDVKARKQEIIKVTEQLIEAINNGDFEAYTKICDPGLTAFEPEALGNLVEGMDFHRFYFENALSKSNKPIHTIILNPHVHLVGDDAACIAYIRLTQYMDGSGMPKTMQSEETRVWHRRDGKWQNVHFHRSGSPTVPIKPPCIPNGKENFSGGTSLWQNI

[6] = target: Casein kinase II subunit alpha (Homo sapiens) (UniProt P68400); test: Inhibition of recombinant full length human CK2alpha1 assessed as residual activity at 1 uM using RRRDDDSDDD as substrate incubated 40 mins in presence of [gamma-33ATP] by scintillation counting based radiometry assay relative to control
[7] = target: Ephrin type-B receptor 4 (Homo sapiens) (UniProt P54760); test: Inhibition of recombinant human EphB4 (561 to end residues) assessed as residual activity at 1 uM using poly(Glu, Tyr) 4:1 as substrate at 40 mins in presence of [gamma-33ATP] by scintillation counting based radiometry assay relative to control
Chain of Ephrin type-B receptor 4 (Homo sapiens) (P54760 whole entry, the tested form may be a part): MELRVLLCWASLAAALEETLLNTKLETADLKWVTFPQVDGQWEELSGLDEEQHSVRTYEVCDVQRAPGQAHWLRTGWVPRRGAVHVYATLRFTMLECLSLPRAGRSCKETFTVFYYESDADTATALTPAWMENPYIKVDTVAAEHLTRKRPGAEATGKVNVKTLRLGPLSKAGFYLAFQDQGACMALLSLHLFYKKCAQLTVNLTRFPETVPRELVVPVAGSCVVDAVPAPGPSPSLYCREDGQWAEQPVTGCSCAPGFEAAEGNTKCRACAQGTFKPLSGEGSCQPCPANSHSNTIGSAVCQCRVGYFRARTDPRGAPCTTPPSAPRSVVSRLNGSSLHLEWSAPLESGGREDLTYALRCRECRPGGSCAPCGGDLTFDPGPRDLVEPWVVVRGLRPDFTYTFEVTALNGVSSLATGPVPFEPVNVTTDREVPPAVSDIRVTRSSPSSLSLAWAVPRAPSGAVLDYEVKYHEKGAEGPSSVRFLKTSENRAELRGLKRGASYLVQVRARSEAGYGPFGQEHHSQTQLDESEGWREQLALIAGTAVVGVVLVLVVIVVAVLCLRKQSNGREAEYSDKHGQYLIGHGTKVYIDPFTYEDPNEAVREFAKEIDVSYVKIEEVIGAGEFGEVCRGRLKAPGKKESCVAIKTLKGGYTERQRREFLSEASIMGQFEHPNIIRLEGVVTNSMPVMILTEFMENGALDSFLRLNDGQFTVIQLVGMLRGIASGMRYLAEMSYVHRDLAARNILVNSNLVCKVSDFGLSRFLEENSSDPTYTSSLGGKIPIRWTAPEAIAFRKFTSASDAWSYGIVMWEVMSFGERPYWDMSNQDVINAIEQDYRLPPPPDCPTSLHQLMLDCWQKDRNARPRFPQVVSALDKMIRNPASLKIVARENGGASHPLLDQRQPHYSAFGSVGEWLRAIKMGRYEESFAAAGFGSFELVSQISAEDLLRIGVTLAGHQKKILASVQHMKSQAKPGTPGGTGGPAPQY

[8] = target: Mitogen-activated protein kinase kinase kinase kinase 1 (Homo sapiens) (UniProt Q92918); test: Inhibition of human HPK1 (1 to 346 residues) assessed as residual activity at 1 uM using myelin basic protein as substrate after 40 mins by [gamma-33ATP] radiometric assay relative to control
[9] = target: LIM domain kinase 1 (Homo sapiens) (UniProt P53667); test: Inhibition of recombinant human LIMK1 (285 to 638 residues) assessed as residual activity at 1 uM using cofilin as substrate after 40 mins in presence of [gamma-33ATP] by scintillation counting based radiometry assay relative to control
[10] = target: MAP/microtubule affinity-regulating kinase 3 (Homo sapiens) (UniProt P27448); test: Inhibition of recombinant full length human MARK3 assessed as residual activity at 1 uM using KKKVSRSGLYRSP as substrate incubated for 40 mins in presence of [gamma-33ATP by scintillation counting based radiometry assay relative to control
[11] = target: Misshapen-like kinase 1 (Homo sapiens) (UniProt Q8N4C8); test: Inhibition of recombinant human MINK (1 to 310 residues) assessed as residual activity at 1 uM using myelin basic protein as substrate measured after 40 mins in presence of [gamma33P]ATP by scintillation counting method
Chain of Misshapen-like kinase 1 (Homo sapiens) (Q8N4C8 whole entry, looked up, the tested form may be a part): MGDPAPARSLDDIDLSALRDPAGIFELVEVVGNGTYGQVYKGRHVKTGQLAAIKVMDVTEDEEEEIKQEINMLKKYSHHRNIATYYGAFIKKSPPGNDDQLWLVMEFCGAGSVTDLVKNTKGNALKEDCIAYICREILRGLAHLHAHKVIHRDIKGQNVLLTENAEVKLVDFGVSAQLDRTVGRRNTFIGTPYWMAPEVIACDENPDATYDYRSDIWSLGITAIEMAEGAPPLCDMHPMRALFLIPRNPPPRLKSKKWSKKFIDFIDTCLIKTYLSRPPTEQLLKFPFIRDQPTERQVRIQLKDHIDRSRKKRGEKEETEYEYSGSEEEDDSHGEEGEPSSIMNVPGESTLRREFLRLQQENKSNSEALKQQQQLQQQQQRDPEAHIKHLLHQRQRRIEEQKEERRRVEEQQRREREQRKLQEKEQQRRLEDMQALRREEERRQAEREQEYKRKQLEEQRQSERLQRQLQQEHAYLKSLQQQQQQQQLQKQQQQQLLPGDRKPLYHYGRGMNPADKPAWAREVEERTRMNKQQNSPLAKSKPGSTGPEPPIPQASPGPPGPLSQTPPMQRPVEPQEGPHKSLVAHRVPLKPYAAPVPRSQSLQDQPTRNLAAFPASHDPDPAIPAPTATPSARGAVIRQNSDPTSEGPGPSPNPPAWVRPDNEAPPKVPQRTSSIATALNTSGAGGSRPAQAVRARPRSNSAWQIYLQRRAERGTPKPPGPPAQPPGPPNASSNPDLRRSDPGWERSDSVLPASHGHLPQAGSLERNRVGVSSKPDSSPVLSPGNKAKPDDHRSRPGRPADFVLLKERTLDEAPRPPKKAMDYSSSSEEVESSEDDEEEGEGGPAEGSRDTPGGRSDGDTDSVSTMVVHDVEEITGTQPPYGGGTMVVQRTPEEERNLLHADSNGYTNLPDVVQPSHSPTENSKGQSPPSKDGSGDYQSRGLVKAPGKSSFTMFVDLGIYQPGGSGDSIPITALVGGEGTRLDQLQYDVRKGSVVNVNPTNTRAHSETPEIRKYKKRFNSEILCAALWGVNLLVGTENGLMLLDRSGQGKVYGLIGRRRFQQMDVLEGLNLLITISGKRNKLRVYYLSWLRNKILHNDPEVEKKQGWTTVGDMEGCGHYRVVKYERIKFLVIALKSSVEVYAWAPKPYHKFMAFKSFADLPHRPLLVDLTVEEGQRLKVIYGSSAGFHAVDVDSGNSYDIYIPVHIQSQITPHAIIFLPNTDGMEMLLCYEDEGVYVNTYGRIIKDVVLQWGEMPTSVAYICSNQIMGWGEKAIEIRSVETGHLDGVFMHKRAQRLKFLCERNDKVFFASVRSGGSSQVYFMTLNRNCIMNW

[12] = target: MAP kinase-interacting serine/threonine-protein kinase 2 (Homo sapiens) (UniProt Q9HBH9); test: Inhibition of recombinant full-length human Mnk2 assessed as residual activity at 1 uM using myelin basic protein as substrate measured after 40 mins in presence of [gamma33P]ATP by scintillation counting method
Chain of MAP kinase-interacting serine/threonine-protein kinase 2 (Homo sapiens) (Q9HBH9 whole entry, looked up): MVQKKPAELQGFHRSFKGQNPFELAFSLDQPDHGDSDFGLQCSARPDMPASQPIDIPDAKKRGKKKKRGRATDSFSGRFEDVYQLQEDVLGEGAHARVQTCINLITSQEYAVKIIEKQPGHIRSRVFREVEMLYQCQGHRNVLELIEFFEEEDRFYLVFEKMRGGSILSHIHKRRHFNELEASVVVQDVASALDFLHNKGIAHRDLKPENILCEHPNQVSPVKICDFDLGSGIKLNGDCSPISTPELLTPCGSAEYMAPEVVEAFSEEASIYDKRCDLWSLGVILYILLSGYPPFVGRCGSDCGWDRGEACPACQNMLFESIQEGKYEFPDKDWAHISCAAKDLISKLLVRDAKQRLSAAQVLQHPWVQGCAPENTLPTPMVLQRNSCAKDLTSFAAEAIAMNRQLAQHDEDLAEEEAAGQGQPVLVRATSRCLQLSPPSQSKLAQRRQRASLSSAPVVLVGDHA

[13] = target: Serine/threonine-protein kinase PAK 5 (Homo sapiens) (UniProt Q9P286); test: Inhibition of recombinant human PAK5 (425 to end residues) assessed as residual activity at 1 uM using RRRLSFAEPG as substrate measured after 40 mins in presence of [gamma33P]ATP by scintillation counting method relative to control
[14] = target: Serine/threonine-protein kinase pim-1 (Homo sapiens) (UniProt P11309); test: Inhibition of recombinant full length human Pim1 assessed as residual activity at 1 uM using KKRNRTLTV as substrate measured after 40 mins in presence of [gamma33P]ATP by scintillation counting method relative to control
Chain of Serine/threonine-protein kinase pim-1 (Homo sapiens) (P11309 whole entry, looked up): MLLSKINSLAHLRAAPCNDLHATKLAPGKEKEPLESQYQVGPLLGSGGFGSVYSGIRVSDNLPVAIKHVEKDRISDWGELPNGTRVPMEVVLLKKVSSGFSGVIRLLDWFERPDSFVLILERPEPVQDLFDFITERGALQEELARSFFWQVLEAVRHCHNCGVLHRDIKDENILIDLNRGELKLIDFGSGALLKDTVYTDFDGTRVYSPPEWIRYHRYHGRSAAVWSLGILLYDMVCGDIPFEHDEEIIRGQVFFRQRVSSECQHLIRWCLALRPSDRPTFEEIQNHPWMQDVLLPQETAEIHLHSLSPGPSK

[15] = test system: RAC-beta serine/threonine-protein kinase (Homo sapiens), P31751 [S474D]; test: Inhibition of recombinant human PKBbeta S474D mutant (120 to end residues) assessed as residual activity at 1 uM using GRPRTSSFAEGKK as substrate measured after 40 mins in presence of [gamma33P]ATP by scintillation counting method relative to control
Chain of RAC-beta serine/threonine-protein kinase (Homo sapiens), P31751 [S474D] (P31751 whole entry S474D): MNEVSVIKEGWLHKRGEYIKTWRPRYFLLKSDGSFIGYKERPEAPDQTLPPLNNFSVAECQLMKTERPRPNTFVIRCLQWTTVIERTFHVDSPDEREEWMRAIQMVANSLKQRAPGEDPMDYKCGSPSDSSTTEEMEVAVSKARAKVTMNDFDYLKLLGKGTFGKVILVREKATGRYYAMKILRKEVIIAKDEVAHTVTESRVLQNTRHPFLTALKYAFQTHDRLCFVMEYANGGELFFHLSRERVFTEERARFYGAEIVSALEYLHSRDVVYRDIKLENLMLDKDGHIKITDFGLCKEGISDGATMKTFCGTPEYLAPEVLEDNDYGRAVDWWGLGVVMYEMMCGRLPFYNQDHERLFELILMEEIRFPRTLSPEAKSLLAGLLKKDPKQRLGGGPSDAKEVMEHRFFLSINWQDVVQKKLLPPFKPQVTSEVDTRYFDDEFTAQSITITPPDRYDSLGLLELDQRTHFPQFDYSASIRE

[16] = target: Protein kinase C zeta type (Homo sapiens) (UniProt Q05513); test: Inhibition of recombinant human PKCzeta (2 to end residues) assessed as residual activity at 1 uM using ERMRPRKRQGSVRRRV as substrate measured after 40 mins in presence of [gamma33P]ATP by scintillation counting method relative to control
[17] = target: Serine/threonine-protein kinase PLK1 (Homo sapiens) (UniProt P53350); test: Inhibition of recombinant full-length human Plk1 assessed as residual activity at 1 uM using casein as substrate measured after 40 mins in presence of [gamma33P]ATP by scintillation counting method relative to control
[18] = target: Proto-oncogene tyrosine-protein kinase Src (Homo sapiens) (UniProt P12931); test: Inhibition of human Src (1 to 530 residues) assessed as residual activity at 1 uM using GGEEEEYFELVKKKK as substrate measured after 40 mins in presence of [gamma33P]ATP by scintillation counting method relative to control
[19] = target: Serine/threonine-protein kinase TAO1 (Homo sapiens) (UniProt Q7L7X3); test: Inhibition of human TAO1 (1 to 327 residues) assessed as residual activity at 1 uM using myelin basic protein as substrate measured after 40 mins in presence of [gamma33P]ATP by scintillation counting method relative to control
[20] = test system: Angiopoietin-1 receptor (Homo sapiens), Q02763 [Q939H,Q940H,R849W]; test: Inhibition of human Tie2 Q939H/Q940H/R849W mutant (771 to end residues) assessed as residual activity at 1 uM using EFPIYDFLPAKKK as substrate measured after 40 mins in presence of [gamma33P]ATP by scintillation counting method relative to control
[21] = target: Testis-specific serine/threonine-protein kinase 1 (Homo sapiens) (UniProt Q9BXA7); test: Inhibition of recombinant full-length human TSSK1 at 1 uM assessed as residual activity at 1 uM using KKKVSRSGLYRSPSMPENLNRPR as substrate measured after 120 mins in presence of [gamma33P]ATP by scintillation counting method relative to control

Structure (SMILES)	inhibition [1] [%]	Activity [2] [%]	Activity [3] [%]	Activity [4] [%]	Activity [5] [%]	Activity [6] [%]	Activity [7] [%]	Activity [8] [%]	Activity [9] [%]	Activity [10] [%]	Activity [11] [%]	Activity [12] [%]	Activity [13] [%]	Activity [14] [%]	Activity [15] [%]	Activity [16] [%]	Activity [17] [%]	Activity [18] [%]	Activity [19] [%]	Activity [20] [%]	also measured
N=C1NC(=O)/C(=C\c2ccc(-c3cccc([N+](=O)[O-])c3)o2)S1	96	75	101	103	92	57	93	97	100	100	85	77	103	9	111	108	99	74	52	91	Activity [21]: 91%
C=CCOC(=O)c1cc(-c2ccc(/C=C3/NC(=S)NC3=O)o2)ccc1Cl	93	103	102	90	65	59	94	98	96	99	92	84	98	21	102	96	103	92	82	105	Activity [21]: 97%
